Experimental data as given in US20240373851A1, “PEST CONTROL COMPOSITION AND PEST CONTROL METHOD” (SUMITOMO CHEMICAL COMPANY, LIMITED, priority 2021, published 2024).

What was measured:
Type in all cases: in vivo
[1] = system: German cockroaches (Blattella germanica); assay: Test Example 11: control test against German cockroaches, spray in chamber; settings: adult German cockroaches; 1.5 mL sprayed; concentration [%]: isocycloseram 0.01, imiprothrin 0.01, permethrin 0.05, alone or mixed; 120 minutes after spraying
Method: (§1) Next, the usefulness of the inventive composition for controlling pests will be indicated by Test Examples. In general, the control effect to be expected when treated with a mixture obtained by mixing given two or three types of active ingredient compounds is determined by the Colby's calculation equation represented by the following [Equation 1] and [Equation 2].
(§2) [formula] • P: moribund and mortal rates (%) when treated with an active ingredient compound X in the concentration of m [ppm] • Q: moribund and mortal rates (%) when treated with an active ingredient compound Y in the concentration of n [ppm] • EA: moribund and mortal rates (%) when treated with an active ingredient compound X in the concentration of m [ppm] and an active ingredient compound Y in the concentration of n [ppm] (hereinafter referred to as expected value A) […]
(§3) Regarding the synergistic effect of three types of the active ingredient compounds, in case where the moribund and mortal rates (%) when actually treated with a mixture obtained by mixing three types of the active ingredient compounds exceed the expected value A calculated by using the moribund and mortal rates (%) when actually treated with a mixture obtained by mixing two types of the active ingredient compounds among three types thereof, and the moribund and mortal rates (%) calculated when actually treated the remaining one type of the active ingredient compound, or the expected value B (%) calculated from the moribund and mortal rates (%) when actually treated with each of three types of the active ingredient compounds alone, it was determined that the synergistic effect exists. […]

[2] = system: German cockroaches (Blattella germanica); assay: Test Example 7: control test against German cockroaches, spray in chamber; settings: adult German cockroaches; 1.5 mL sprayed; concentration [%]: isocycloseram 0.05, imiprothrin 0.01, cypermethrin 0.01, alone or mixed; 120 minutes after spraying
Method: as §1, §2, §3

[3] = system: German cockroaches (Blattella germanica); assay: Test Example 6: control test against German cockroaches, spray in chamber; settings: adult German cockroaches; 1.5 mL sprayed; concentration [%]: isocycloseram 0.05, imiprothrin 0.01, lambda-cyhalothrin 0.0025, alone or mixed; 60 minutes after spraying
Method: as §1, §2, §3

[4] = system: German cockroaches (Blattella germanica); assay: Test Example 5: control test against German cockroaches, spray in chamber; settings: adult German cockroaches; 1.5 mL sprayed; concentration [%]: nicofluprole 0.01, imiprothrin 0.01, cyfluthrin 0.0002, alone or mixed; 45 minutes after spraying
Excerpt: (§4) Next, the usefulness of the inventive composition for controlling pests will be indicated by Test Examples.
(§5) (hereinafter referred to as expected value A)
(§6) (hereinafter referred to as expected value B)
(§7) In a plastic cup (diameter: 12.4 cm, height: 10.2 cm) lined with a filter paper, ten adult German cockroaches (Blattella germanica) (five males and five females each) or eleven adult German cockroaches were released, and the plastic cup was placed in the center of the bottom of a box-shaped chamber (46 cm×46 cm×70 cm in height). From the height of 60 cm, 1.5 mL of each of formulations prepared by dissolving a single agent of any one of nicofluprole, imiprothrin and cyfluthrin, or a mixed agent of two or more thereof in a mixture of isopropyl alcohol and Isopar M at a mixing ratio of 1:9 was sprayed under a spray pressure of 0.041 MPa. After a lapse of 45 minutes from spraying, the number of dead and moribund individuals was examined, and moribund and mortal rates (%) were determined by the above equation 3. The test was performed through two replicates. Dead individuals are completely immobile individuals, and moribund individuals are individuals who cannot get up when turned on their backs.

[5] = system: German cockroaches (Blattella germanica); assay: Test Example 10: control test against German cockroaches, spray in chamber; settings: adult German cockroaches; 1.5 mL sprayed; concentration [%]: nicofluprole 0.01, imiprothrin 0.01, permethrin 0.05, alone or mixed; 60 minutes after spraying
Method: as §1, §2, §3

[6] = system: German cockroaches (Blattella germanica); assay: Test Example 8: control test against German cockroaches, spray in chamber; settings: adult German cockroaches; 1.5 mL sprayed; concentration [%]: nicofluprole 0.01, imiprothrin 0.01, phenothrin 0.1, alone or mixed; 45 minutes after spraying
Method: as §1, §2, §3

[7] = system: German cockroaches (Blattella germanica); assay: Test Example 2: control test against German cockroaches, spray in chamber; settings: adult German cockroaches; 1.5 mL sprayed; concentration [%]: nicofluprole 0.01, imiprothrin 0.01, cypermethrin 0.01, alone or mixed; 120 minutes after spraying
Method: as §1, §2, §3

[8] = system: German cockroaches (Blattella germanica); assay: Test Example 4: control test against German cockroaches, spray in chamber; settings: adult German cockroaches; 1.5 mL sprayed; concentration [%]: nicofluprole 0.01, imiprothrin 0.01, deltamethrin 0.0002, alone or mixed; 45 minutes after spraying
Method: as §1, §2, §3

[9] = system: German cockroaches (Blattella germanica); assay: Test Example 9: control test against German cockroaches, spray in chamber; settings: adult German cockroaches; 1.5 mL sprayed; concentration [%]: broflanilide 0.02, imiprothrin 0.01, permethrin 0.05, alone or mixed; 420 minutes after spraying
Excerpt: as §4, §5, §6
as §7, with “each)” for “each) or eleven adult German cockroaches”, “broflanilide,” for “nicofluprole,”, “permethrin,” for “cyfluthrin,”, “420” for “45”

In the case of `CCN1OCC(NC(=O)c2ccc(C3=NOC(c4cc(Cl)c(F)c(Cl)c4)(C(F)(F)F)C3)cc2C)C1=O` (centres unmarked) [Isocycloseram, isocycloseram], the “Moribund and mortal rates [%] after 120 minutes” value [1] is reported as 5%, the “Moribund and mortal rates [%] after 120 minutes” value [2] is reported as 10% and the “Moribund and mortal rates [%] after 60 minutes” value [3] is reported as 5%.

`CN(C(=O)c1cc(-c2cnn(-c3c(Cl)cc(C(F)(C(F)(F)F)C(F)(F)F)cc3Cl)c2)cnc1Cl)C1CC1` [Nicofluprole, nicofluprole] was tested, and the “Moribund and mortal rates [%] after 45 minutes” value [4] was 0%, the “Moribund and mortal rates [%] after 60 minutes” value [5] was 0% and the “Moribund and mortal rates [%] after 45 minutes” value [6] was 0%. For the same compound, the “Moribund and mortal rates [%] after 120 minutes” value [7] was 0% and the “Moribund and mortal rates [%] after 45 minutes” value [8] was 0%.

`CC1(C)C(C=C(Cl)Cl)C1C(=O)OCc1cccc(Oc2ccccc2)c1` (centres unmarked) [Permethrin, permethrin] was tested, and the “Moribund and mortal rates [%] after 420 minutes” value [9] was 5%, the “Moribund and mortal rates [%] after 120 minutes” value [1] was 5% and the “Moribund and mortal rates [%] after 60 minutes” value [5] was 5%.
